# Experimental data taken from PubChem BioAssay AID1259333 (Broad Institute, 2017).
# Several values for one entry are separate records, joined by “and”; a condition that tells them apart may be missing. Identical values can stand only once. Activity calls are given as the source filed them. The rule behind the calls is not given here; tested in parental BL2 cells.
# System: cytotoxicity, CellTiter-Glo ATP luminescence
# Assay: loss of cell viability by ATP content – CellTiter-Glo, cytotoxicity control, dose response (AID 1259333);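 for activity change, negative = cytotoxicity: 0% = vehicle neutral controls and -100% = reference inhibitor positive controls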
# Conditions: not given
row,Structure (SMILES),AC50
1,O=C(C1CC1)N1C[C@@H]2N[C@H](C1)[C@@H]2c1ccc(-c2ccncc2)cc1,> 20 µM (inactive)
2,CC12CCC3C(CCC4(O)CC(O)CCC34C=NO)C1(O)CCC2C1=COC(=O)C1 (stereo not given),0.322 µM
3,COc1ccc(C(=O)O/N=C2\C(=O)N(C)c3ccccc32)cc1,2 µM
4,Cc1ccc(S(=O)(=O)N2CCCC2CNC(=O)c2ccc3c(c2)OCO3)cc1 (stereo not given),4.95 µM
5,Cc1ccc(-c2cc(C(=O)N3CC(C)OC(C)C3)c3ccccc3n2)o1 (stereo not given),> 20 µM (inactive)
6,C[C@@H]1O[C@@H](O[C@H]2C[C@@H](O)[C@]3(CO)C4C(CC[C@]3(O)C2)[C@@]2(O)CC[C@H](C3=CC(=O)OC3)[C@@]2(C)C[C@H]4O)[C@H](O)[C@H](O)[C@H]1O (stereo not given in full),0.379 µM
7,C[C@@H]1CN([C@@H](C)CO)C(=O)c2ccccc2-c2ccccc2CO[C@@H]1CN(C)Cc1ccc(Oc2ccccc2)cc1,8.71 µM
8,CC1OC(CC(=O)O)CC2=C1C(=O)c1c(O)cccc1C2=O (stereo not given),1.06 µM
9,N=C(N)c1ccc(OCCCCCOc2ccc(C(=N)N)cc2)cc1,> 20 µM (inactive)
10,C[C@H]1CN([C@@H](C)CO)C(=O)c2c(c3ccccc3n2C)-c2ccccc2CO[C@@H]1CN(C)C(=O)Nc1ccccc1C(F)(F)F,> 20 µM (inactive)
11,O=C1NC2c3c(Cl)sc(Cl)c3C(=O)C2O1 (stereo not given),3.72 µM
12,CC(C)c1ccc(NC(=O)Nc2nc(C(N)COCc3ccccc3)cs2)cc1 (stereo not given),4.21 µM
13,CCSc1ccc(-c2cc(NC=O)c3ncc(-c4cccc(C(=O)N(C)C)c4)n3c2)cc1,> 20 µM (inactive)
14,COc1ccc(/C=N/Nc2ncccc2[N+](=O)[O-])c(OC)c1,5.79 µM
15,COCC(=O)N1[C@H](C#N)[C@H](c2ccc(C#Cc3ccccc3F)cc2)[C@H]1CO,11.5 µM
16,COC(=O)C12OCC34C(CC5C(C)=C(O)C(=O)CC5(C)C3C(O)C1O)OC(=O)C(OC(=O)C=C(C)C)C24 (stereo not given),3.11 µM
17,CC12CCC3C(CCC4(O)CC(O)CCC34C=O)C1(O)CCC2C1=CC(=O)OC1 (stereo not given),3.23 µM
18,CCCNC(=O)N1[C@H](C#N)[C@@H](c2ccc(-c3cccc(OC)c3)cc2)[C@H]1CO,> 20 µM (inactive)
19,C[C@@H]1CCCCO[C@H](CN(C)CC2CCCCC2)[C@H](C)CN([C@@H](C)CO)C(=O)c2cc(NC(=O)Nc3ccc(C(F)(F)F)cc3)ccc2O1,4.91 µM
20,O=C1Cc2c([nH]c3ccc(Br)cc23)-c2ccccc2N1,10.2 µM
21,CCC(C)[C@H]1O[C@]2(CC[C@@H]1C)C[C@@H]1C[C@@H](C/C=C(\C)[C@@H](OC3C[C@H](OC)C(O[C@H]4C[C@H](OC)[C@@H](O)[C@H](C)O4)[C@H](C)O3)[C@@H](C)/C=C/C=C3\CO[C@@H]4[C@H](O)C(C)=C[C@@H](C(=O)O1)[C@]34O)O2 (stereo not given in full),> 20 µM (inactive)
22,O=C(c1ccc(Nc2nccc(-c3cc4ccccc4s3)n2)cc1)N1CCC(N2CCCC2)CC1,3.83 µM and 1.17 µM
23,Cc1noc(C)c1S(=O)(=O)Nc1ccc2c(c1)CC(=O)N([C@@H](C)CO)C[C@@H](C)[C@@H](CN(C)Cc1ccc(Oc3ccccc3)cc1)O2,> 20 µM (inactive)
24,CCN(CC)C(=O)c1ccc(NC(=O)Nc2ccccc2F)cc1,3.45 µM

# System: not listed separately
# Assay: as above
# Conditions: cytotoxicity, CellTiter-Glo ATP luminescence; at 3.5 µM (top of the series)
row,Structure (SMILES),"activity change, negative = cytotoxicity"
1,O=C1C=CC(=O)c2c(O)c(N3CCN(CCOCCO)CC3)c(Br)c(O)c21,104% (inactive)
2,C[C@H](CO)N1C[C@H](C)[C@H](CN(C)CC2CCCCC2)Oc2ccc(NC(=O)Nc3ccc(C(F)(F)F)cc3)cc2C1=O,32.8% (inactive)
3,C[C@]12CC[C@H](O)C[C@H]1CC[C@@H]1[C@@H]2CC[C@]2(C)[C@@H](c3ccc(=O)oc3)CC[C@]12O,25.8% (inactive)

# Same assay, conditions: cytotoxicity, CellTiter-Glo ATP luminescence; at 10 µM (top of the series)
row,Structure (SMILES),"activity change, negative = cytotoxicity"
1,CC=Cc1cc2c(c(=O)o1)C(=O)C(O)C(C)O2 (stereo not given),37.6% (inactive)
2,CC12CN3CC(C)(CN(C1)C3c1ccc3c(c1)OCO3)C2=O (stereo not given),48.6% (inactive)
3,C=C1C(=O)OC2C=C(CO)CCC=C(CO)CC(OC(=O)C(C)C)C12 (stereo not given),38.2% (inactive)
4,CC(=O)O[C@@H]1C[C@@]2(C)[C@H](c3ccoc3)C[C@H]3O[C@]32[C@]2(C)C(=O)C(=O)C3C(C)(C)C(=O)C=C[C@]3(C)C12 (stereo not given in full),188% (inactive)
5,CCCCc1nc2ccccc2[nH]1,13.9% (inactive)
6,Oc1c(Cl)cc(Cl)cc1Sc1cc(Cl)cc(Cl)c1O,11% (inactive)
7,Nc1nc(=O)c2ccccc2s1,19.7% (inactive)
8,O=C1C(=Cc2ccccc2[N+](=O)[O-])Cc2ccccc21,161% (inactive)
9,O=C(C[C@@H]1CC[C@H]2[C@@H](COC[C@@H](O)CN2Cc2cc(F)ccc2F)O1)NCc1ccc(Oc2ccccc2)cc1,14.2% (inactive)
10,Cc1nc(-c2ccc(OCC(C)C)c(C#N)c2)sc1C(=O)O,23.3% (inactive)
11,CC1(C)C(=O)C=C[C@@]2(C)C1C=C[C@]1(C)C2CC[C@@]2(C)[C@H](c3ccoc3)OC(=O)[C@H]3O[C@]321 (stereo not given in full),15.6% (inactive)
12,N#Cc1ccc(-c2ccc3c(c2)[C@H]2[C@H](CCN2C(=O)C2CC2)[C@@H](CO)N3)cc1,66.9% (inactive)
13,O=C(Cc1ccccc1)N1CC[C@@H]2[C@H]1c1cc(-c3cccc(F)c3)ccc1N[C@@H]2CO,8.92% (inactive)
14,O=S(=O)(CCSc1ccccn1)c1nc2ccccc2s1,55.1% (inactive)
15,Oc1cc2c(cc1C(c1ccc(Br)cc1)N1CCCC1)OCO2 (stereo not given),7.99% (inactive)
16,C[C@@H]1CN([C@@H](C)CO)C(=O)c2c(c3ccccc3n2C)-c2ccccc2CO[C@H]1CN(C)Cc1cccc(C(=O)Nc2ccccc2N)c1,26.3% (inactive)
17,CCN(CC(=O)Nc1ccc(NC(C)=O)cc1)C(=O)C1CCCN(C(=O)c2ccc(Cl)cc2)C1 (stereo not given),33.9% (inactive)
18,Cc1ccc(OC(=O)N(C)C[C@@H]2OCc3ccccc3-c3c(n(C)c4ccccc34)C(=O)N([C@@H](C)CO)C[C@H]2C)cc1,5.02% (inactive)
19,c1ccc2c(c1)OCC(C1=NCCN1)O2 (stereo not given),56.8% (inactive)
20,CC(C)(C)NCC(=Cc1ccccc1)C(=O)c1ccccc1,103% (inactive)
21,CCCCC1C(=O)NC(=S)N(C)C1=O (stereo not given),33.7% (inactive)
22,O=C(/C=C/c1cccs1)c1ccc(N2CCOCC2)cc1,23.6% (inactive)
23,COc1ccc(S(=O)(=O)Nc2ccc3c(c2)C(=O)N([C@H](C)CO)C[C@@H](C)[C@@H](CN(C)Cc2ccc(C(F)(F)F)cc2)OCCCC[C@@H](C)O3)cc1,4.86% (inactive)

row,Structure (SMILES),"activity change, negative = cytotoxicity"
1,O=C(COC(=O)c1ccccc1)c1ccc2c(c1)OCCO2,21.1% (inactive)
2,Oc1ccc2c(c1)OCC1(O)Cc3cc(O)c(O)cc3C21 (stereo not given),8.98% (inactive)
3,COc1cccc(/C=N/Nc2ccc(C(=O)O)cc2)c1O,5.24% (inactive)
4,COc1ccc(CN2CC3(CN(S(=O)(=O)c4ccc(C)cc4)C3)c3c([nH]c4cc(OC)ccc34)[C@H]2CO)cc1,20.2% (inactive)
5,CC1CC(C)C(=O)C(C(CC2CC(=O)NC(=O)C2)OC(=O)CC(=O)c2ccccc2)C1 (stereo not given),11.5% (inactive)
6,CC[C@H]1CN2CCc3cc(OC)c(OC)cc3C2C[C@@H]1CC1NCCc2cc(OC)c(OC)cc21 (stereo not given in full),-31.6% (inactive)
7,O=C(O)c1ccc(Nc2nc3c(s2)CCCC3)cc1,38.4% (inactive)
8,CCCNC(=O)c1cc2c(c(-c3cccc(-c4cc5ccccc5o4)c3)n1)[C@H](CCO)N(C(=O)NC(C)C)C2,109% (inactive)
9,N#C[C@H]1[C@H](c2ccc(C#Cc3ccc(F)cc3)cc2)[C@@H](CO)N1C(=O)C1CCC1,-4.11% (inactive)
10,C[C@H]1CN([C@@H](C)CO)C(=O)c2ccccc2-c2ccccc2CO[C@H]1CN(C)C(=O)[C@@H](Cc1ccccc1)N(C)C,83.4% (inactive)
11,COc1ccc(C#Cc2ccc([C@H]3[C@H]4CN(C(=O)c5ccncc5)CCCCN4[C@H]3CO)cc2)cc1,30.7% (inactive)
12,O=C(C[C@@H]1C[C@H]2c3cc(NC(=O)Nc4ccc(C(F)(F)F)cc4)ccc3O[C@H]2[C@H](CO)O1)NCc1cc(F)ccc1F,31.2% (inactive)
13,COc1ccc(S(=O)(=O)Nc2ccc3c(c2)C(=O)N([C@@H](C)CO)C[C@@H](C)[C@@H](CN(C)Cc2ccc(C(F)(F)F)cc2)OCCCC[C@@H](C)O3)cc1,-20.6% (inactive)
14,O=C(c1nnsc1S(=O)(=O)c1ccc(Cl)cc1)N1CCOCC1,40.8% (inactive)
15,COc1cccc(S(=O)(=O)N(C)C[C@@H]2OCc3ccccc3-c3c(n(C)c4ccccc34)C(=O)N([C@H](C)CO)C[C@H]2C)c1,9.22% (inactive)
16,O=C(NCc1ccccn1)C1CCCN(S(=O)(=O)c2ccccc2)C1 (stereo not given),44.9% (inactive)
17,NC(c1ccccc1)c1csc(NC(=O)Nc2cccc(C(F)(F)F)c2)n1 (stereo not given),-26.9% (inactive)
18,COc1ccccc1NC(c1cccnc1)c1ccc2cccnc2c1O (stereo not given),123% (inactive)
19,CCCNC(=O)N1[C@H](CO)[C@H](c2ccc(-c3cccc(OC)c3)cc2)[C@@H]1C#N,27% (inactive)
20,C(=Cc1c[nH]c2ccccc12)c1nccc2ccccc12,33.1% (inactive)
21,O=C(C#Cc1ccccc1)c1ccccc1,43.8% (inactive)
22,COc1ccc(S(=O)(=O)N(C)C[C@@H]2Oc3ccc(NC(=O)Nc4ccc(C(F)(F)F)cc4)cc3C(=O)N([C@@H](C)CO)C[C@@H]2C)cc1,84.5% (inactive)
23,O=C(CNCCO)N1N=C(c2cccs2)CC1c1cccs1 (stereo not given),18.9% (inactive)

# Same assay, conditions: cytotoxicity, CellTiter-Glo ATP luminescence; at 11 µM (top of the series)
row,Structure (SMILES),"activity change, negative = cytotoxicity"
1,COc1ccc(-c2ccc([C@H]3[C@@H](C#N)N(C(=O)c4cccc(F)c4)[C@H]3CO)cc2)cc1,24% (inactive)
2,C[C@@H]1CN([C@H](C)CO)C(=O)Cc2cc(NC(=O)Cc3cn(C)c4ccccc34)ccc2O[C@H]1CN(C)Cc1ccc(C(F)(F)F)cc1,6.35% (inactive)
